According to patent publication US5721266A, “Substituted imidazolinyl-imidazolines as antagonists of SH-2 binding and therapeutic uses thereof” (Warner-Lambert Company, priority 1994, dated 1998):
Where two headings read alike, the source gives them in different places.

How the values were obtained:
[1] = tested on: Rat Aortic Smooth Muscle Cells (RASMC); assay: [3H]Thymidine Incorporation Assay, smooth muscle cell proliferation stimulated by serum; format: cell-based; conditions: 22 hours
Procedure: (§1) SH-2 tyrosine kinase inhibitors may block the signal transduction pathways for platelet derived growth factor ("PDGF") and fibroblast growth factor ("FGF"), which have been implicated in the control of smooth muscle cell proliferation. The ability of some of the preferred compounds of the present invention to inhibit smooth muscle cell (SMC) proliferation stimulated by PDGF or serum was measured using the biological assay discussed below.
(§2) Rat Aortic Smooth Muscle Cells (RASMC) were plated into a 24-well plate (30,000 cells/well) in DMEM with 10% Fetal Bovine Serum (FBS). After 4 days cells reached confluence and were made quiescent by incubation in DMEM/F12 medium (Gibco) containing 0.2% FBS for another 2 days. Incubation with the growth factors, PDGF-BB and bFGF as well as FBS, and test compound was carried out in 0.5 mL/well serum-substituted medium (DMEM/F12+1% CPSR-2 from Sigma) for 22 hours. After 18 hours, 0.25 μCi/well [^3 H]thymidine was added. Four hours later the incubation was stopped by removing the radioactive media, washing the cells twice with 1 mL cold phosphate-buffered saline, and then washing 2 times with cold 5% trichloroacetic acid. The acid-insoluble fraction was lysed in 0.75 mL 0.25N NaOH and the radioactivity determined by liquid scintillation counting.
(§3) Smooth muscle cells were isolated from the thoracic aorta of rats (RASMC) and explanted according to the method of Ross, et al., Cell Biology 50:172-186 (1971). Cells were grown in Dulbecco's modified Eagle's medium (DMEM, Gibco) containing 10% fetal calf serum (FBS, Hyclone, Logan, Utah), 1% glutamine (Gibco), and 1% penicillin/streptomycin (Gibco). Cells were identified as smooth muscle cells by their "hill and valley" growth pattern and by fluorescent staining with a monoclonal antibody specific for SMC α-actin (Sigma). RASMC were used between passages 5 and 20 for all experiments. Test compounds were prepared in dimethylsulfoxide (DMSO) in order to achieve consistency in the vehicle and to ensure compound solubility. Appropriate DMSO controls were simultaneously evaluated with the test compounds.
(§4) The results of the cellular proliferation assay are expressed in Table 2 as IC50 values, i.e., the concentration of test compound required to inhibit [^3 H]thymidine incorporation into smooth muscle cells.

[2] = tested on: Rat Aortic Smooth Muscle Cells (RASMC); assay: [3H]Thymidine Incorporation Assay, smooth muscle cell proliferation stimulated by PDGF; format: cell-based; conditions: 22 hours
Procedure: as §1, §2, §3, §4

[3] = target: T1, [35S]abl SH-2 / activated EGF receptor (Homo sapiens, UniProt P00519); assay: in vitro inhibition of [35S]abl SH-2 interactions with activated EGF receptor; format: binding
T1 construct: containing the SH-2 domain of abl; made in house; host or cells: abl SH-2 fusion: bacteria, labelled in vivo with 35S; EGFR partner: EGF-treated 3T3 cells transfected with human EGFR, immunoprecipitated
T1 sequence (P00519 127-217 limits assumed): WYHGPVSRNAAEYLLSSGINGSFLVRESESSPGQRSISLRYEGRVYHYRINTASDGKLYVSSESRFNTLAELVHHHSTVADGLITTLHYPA
Procedure: The ability of some of the preferred compounds of the present invention to inhibit SH-2 interactions with activated tyrosine kinase receptors was measured using an in vitro biological assay. The test assesses the ability of a test compound to inhibit the interaction of [^35 S]abl SH-2 with activated EGF receptors, or with other receptor tyrosine kinases.
A bacterial glutathione-S-transferase fusion protein, containing the SH-2 domain of abl, is labelled in vivo with ^35 S. Phosphorylated EGFR is purified from EGF-treated 3T3 cells transfected with the human EGFR by precipitation with anti-EGFR antisera. The resulting immune complex is bound to protein A--Sepharose beads. Binding of the ^35 S labelled abl fusion protein (77 nM) to the purified EGFR beads complex (approximately 1 μg of receptor/assay) is allowed to proceed to equilibrium (30 minutes) in a total volume of 0.4 mL, in the presence of the test compounds. Bound ^35 S fusion protein is separated from free by filtration through 0.65 μ DUPP filters, and radioactivity is determined by scintillation counting.
Results of the binding study are expressed in Table 1 as IC50 values, i.e., the concentration of test compound required to inhibit [^35 S]abl SH-2 interactions with the activated EGF receptor.

[4] = tested on: K562; assay: inhibition of growth of tumor cells, K562; format: cell-based; conditions: 96 h, human chronic myelogenous leukemia, expresses p210 bcr-abl, 4 days
Procedure: (§5) In one screen, K562 human erythroleukemic cells were seeded at 6×10^4 cells/mL in RPMI 1640 medium containing 10% fetal bovine serum. These cells score positively for the Philadelphia chromosome, and are known to be transformed by the bcr-abl oncogene. At the time of seeding, test compound, or vehicle (DMSO), were added. Cells were counted 4 days after seeding using a hemocytometer.
The results of this experiment for a representative compound of the present invention appears in Table 3. Test Compound A is N,N'-decamethylenebis[2-amino-1-(2-imidazolin-2-yl)-2-imidazoline, dihydroiodide. The inhibition of growth of tumor cells is expressed as IC50 values; i.e., the concentration of test compound required to inhibit growth of the tumor cells by 50%.

[5] = tested on: KG-1A; assay: inhibition of growth of tumor cells, KG-1A; format: cell-based; conditions: human acute myelogenous leukemia, no bcr-abl
[6] = tested on: MOLT-4; assay: inhibition of growth of tumor cells, MOLT-4; format: cell-based; conditions: human acute lymphoblastic leukemia, no bcr-abl
[7] = tested on: A431; assay: inhibition of growth of tumor cells, A431; format: cell-based; conditions: A-431, human epidermoid carcinoma, overexpresses EGF receptor
[8] = tested on: SWISS 3T3; assay: inhibition of cell growth, SWISS 3T3; format: cell-based; conditions: mouse fibroblast
[9] = tested on: HCT-8; assay: inhibition of growth of tumor cells, HCT-8; format: cell-based; conditions: human colon carcinoma, 18,000 EGF receptors/cell
[10] = tested on: L1210; assay: inhibition of growth of tumor cells, L1210; format: cell-based; conditions: mouse lymphocytic leukemia
[11] = tested on: MCF-7; assay: inhibition of growth of tumor cells, MCF-7; format: cell-based; conditions: Homo sapiens, MCF7, estrogen dependent breast adenocarcinoma, 3000 EGF receptors/cell, some erbB2
[12] = tested on: MDA-231; assay: inhibition of growth of tumor cells, MDA-231; format: cell-based; conditions: Homo sapiens, MDA-MB-231, breast adenocarcinoma, moderate EGFR and erbB2
[13] = tested on: MDA-468; assay: inhibition of growth of tumor cells, MDA-468; format: cell-based; conditions: estrogen independent breast adenocarcinoma, overexpresses EGF receptor
[14] = tested on: NIH 2.2; assay: inhibition of cell growth, NIH 2.2; format: cell-based; conditions: mouse fibroblast, no EGF receptor
[15] = tested on: NIH EGF-R; assay: inhibition of cell growth, NIH EGF-R; format: cell-based; conditions: mouse fibroblast, high expression of EGF receptor
[16] = tested on: K562 cell line; assay: viability of the K562 cell line (FIGS. 1 and 2); format: cell-based, human
Procedure: as §5
(§6) In this example, an experiment was conducted to determine the inhibition of the growth of tumor cells from the K562 cell line upon exposure to Test Compound A specified in Example 3. The screen was conducted as described in Example 3.

[17] = tested on: K562 cell line; assay: proliferation of K562 cell line (FIG. 3); format: cell-based, human; conditions: FIG. 3, wide range of concentrations
Procedure: as §5, §6

[18] = tested on: KG-1A cell line; assay: proliferation of KG-1A cell line (FIG. 3); format: cell-based, human; conditions: FIG. 3, wide range of concentrations
Procedure: [The procedure below names another cell line; the source lists this cell line under the same test.] as §5, §6

[19] = [35S]abl SH-2 binding to activated EGF receptor, values in nM, read-out: IC50
[20] = [35S]abl SH-2 binding to activated EGF receptor, values in μM, read-out: IC50

| IC50 [3, 20] [nM] | Structure (SMILES) | IC50 [1] [µM] | IC50 [2] [µM] | further results |
| --- | --- | --- | --- | --- |
|  | CCCCCCCNC1=NCCN1C1=NCCN1 [drawing 21, 2-(Heptylamino)-1-(2-imidazolin-2-yl)-2-imidazoline, monohydroiodide] | 6.4 | 3 |  |
|  | C(CCCNC1=NCCN1C1=NCCN1)CCNC1=NCCN1C1=NCCN1 |  |  | IC50 [3, 19]: 100 nM |
| 10000 to 100000 | CCCCCCCNC1=NCCN1C1=NCCN1 [drawing 7, 2-(Heptylamino)-1-(2-imidazolin-2-yl)-2-imidazoline, monohydroiodide] |  |  |  |
| 10000 | C(CN=C1NCCN1C1=NCCN1)CN1CCN(CCCN=C2NCCN2C2=NCCN2)CC1 [2-(3-{4-[3-(4,5,4',5'-Tetrahydro-3H,1'H-[1,2']biimidazolyl-2-ylideneamino)-propyl]-piperazin-1-yl}-propylimino)-2,3,4,5,4',5'-hexahydro-1'H-[1,2']biimidazolyl] |  |  |  |
|  | C(CCCCCNC1=NCCN1C1=NCCN1)CCCCCNC1=NCCN1C1=NCCN1 |  |  | IC50 [3, 19]: 600 nM |
| 38000 | C(CCCNC1=NCCN1C1=NCCN1)CCCNC1=NCCN1C1=NCCN1 |  |  |  |
|  | C(CCCCCNC1=NCCN1C1=NCCN1)CCCCNC1=NCCN1C1=NCCN1 [Compound A] | 5 | 2.8 | IC50 [3, 19]: 50 nM; IC50 [4]: 0.6 µM; IC50 [5]: 100 µM; IC50 [6]: 2.1 µM; IC50 [7]: 4.4 µM; IC50 [8]: > 50 µM; IC50 [9]: 6.6 µM; IC50 [10]: 1 µM; IC50 [11]: 7.8 µM; IC50 [12]: 14 µM; IC50 [13]: 0.9 µM; IC50 [14]: > 25 µM; IC50 [15]: > 25 µM; viability of the K562 cell line ([16]; FIG. 1, increased concentrations): steadily decline; viability of the K562 cell line over time ([16]; FIG. 2, 3 μM versus 0.3 μM, compared against a control): substantially greater effect at decreasing the viability; growth rate of the K562 cell line [17]: substantially decreased; growth rate of the KG-1A cell line [18]: only slightly decreased |
|  | C(CCCCCCNC1=NCCN1C1=NCCN1)CCCCCNC1=NCCN1C1=NCCN1 |  |  | IC50 [3]: 1200 nM |
| > 100000 | C1CCCCCC(NC2=NCCN2C2=NCCN2)CCCCC1 [drawing 11, 2-Cyclododecylamino-1-(2-imidazolin-2-yl)-2-imidazoline, monohydroiodide] |  |  |  |
| 50000 | CCCCCCCCCCCCCN=C1NCCN1C1=NCCN1 [(4,5,4',5'-Tetrahydro-3H,1'H-[1,2']biimidazolyl-2-ylidene)-tridecyl-amine] |  |  |  |
| 27000 | C(CCNC1=NCCN1C1=NCCN1)CNC1=NCCN1C1=NCCN1 |  |  |  |
| 33000 | C(CCCCNC1=NCCN1C1=NCCN1)CCCNC1=NCCN1C1=NCCN1 | 62 | 40 |  |
| 1320 | CCCCCCCCCCCCCCCCCNC1=NCCN1C1=NCCN1 [2-(Heptadecylamino)-1-(2-imidazolin-2-yl)-2-imidazoline, monohydroiodide] | < 1 | < 1 |  |
|  | C1CCCCCC(NC2=NCCN2C2=NCCN2)CCCCC1 [drawing 25, 2-Cyclododecylamino-1-(2-imidazolin-2-yl)-2-imidazoline, monohydroiodide] | 1.1 | < 1 |  |
|  | C(CCCCNC1=NCCN1C1=NCCN1)CCCCNC1=NCCN1C1=NCCN1 |  |  | IC50 [3]: 1300 nM |
| 259000 | C(CCNC1=NCCN1C1=NCCN1)CCNC1=NCCN1C1=NCCN1 | > 100 | 74 |  |
